In patent US9169254B2, “Spiroimidazolone derivative” (Chugai Seiyaku Kabushiki Kaisha, priority 2009, dated 2015):

Biological target: T1, human PTH1 receptor (Homo sapiens, UniProt Q03431)
T1 sequence (Q03431 27-593): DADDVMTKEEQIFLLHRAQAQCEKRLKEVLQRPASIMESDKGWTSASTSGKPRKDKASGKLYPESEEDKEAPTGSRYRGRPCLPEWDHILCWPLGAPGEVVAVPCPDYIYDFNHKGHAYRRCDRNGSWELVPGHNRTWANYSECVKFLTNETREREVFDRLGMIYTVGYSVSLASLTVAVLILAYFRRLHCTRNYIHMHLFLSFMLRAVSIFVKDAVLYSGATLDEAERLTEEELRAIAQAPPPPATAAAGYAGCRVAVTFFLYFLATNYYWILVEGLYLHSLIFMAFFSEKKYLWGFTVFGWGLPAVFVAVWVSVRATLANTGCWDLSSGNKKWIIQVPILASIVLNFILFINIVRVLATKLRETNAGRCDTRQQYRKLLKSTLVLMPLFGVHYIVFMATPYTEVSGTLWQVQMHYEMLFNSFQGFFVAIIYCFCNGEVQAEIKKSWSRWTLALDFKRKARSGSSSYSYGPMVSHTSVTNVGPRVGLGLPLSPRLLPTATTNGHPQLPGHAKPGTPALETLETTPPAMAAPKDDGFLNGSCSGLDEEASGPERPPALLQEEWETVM
Test: In vitro cAMP signal activity in HKRK-B7 cells (LLC-PK1 cells overexpressing the human PTH1 receptor)
Format: cell-based
Conditions: 0.1 µM

Compound	cAMP production activity (%)
Cc1cc(N(C)C(N)=O)cc(C)c1CCS(=O)(=O)N1CCC2(CC1)N=C(c1cccc(C(F)(F)C(F)(F)C(F)(F)C(F)(F)F)c1)NC2=O [Compound 1341, 1-(3,5-dimethyl-4-{2-[2-(3-nonafluorobutyl-phenyl)-4-oxo-1,3,8-triaza-spiro[4.5]dec-1-ene-8-sulfonyl]-ethyl}-phenyl)-1-methyl-urea]	83%

Same assay, conditions: HKRK-B7 cells; compound at 1×10^−3 M; cAMP produced as percentage of that produced by hPTH(1-34) at 100 nM

Compound	cAMP production activity (%)
CC1CCC(C2=NC3(CCN(S(=O)(=O)CCc4cccc5[nH]ccc45)CC3)C(=O)N2)CC1 (stereo not shown) [Compound 306, 8-[2-(1H-indol-4-yl)-ethanesulfonyl]-2-(4-methyl-cyclohexyl)-1,3,8-triaza-spiro[4.5]dec-1-en-4-one]	45%
Cc1cc(C(=O)N2CCC(O)CC2)cc(C)c1/C=C/S(=O)(=O)N1CCC2(CC1)N=C(c1cccc(OC(F)(F)F)c1)NC2=O [Compound 400, 8-{(E)-2-[4-(4-hydroxy-piperidine-1-carbonyl)-2,6-dimethyl-phenyl]-ethenesulfonyl}-2-(3-trifluoromethoxy-phenyl)-1,3,8-triaza-spiro[4.5]dec-1-en-4-one]	76%
COc1cccc(/C=C/S(=O)(=O)N2CCC3(CC2)N=C(C2CCCCC2)NC3=O)c1 [Compound 180, 2-cyclohexyl-8-[(E)-2-(3-methoxy-phenyl)-ethenesulfonyl]-1,3,8-triaza-spiro[4.5]dec-1-en-4-one]	60%
Cc1cc(C(=O)N2CCC(O)CC2)ccc1/C=C/S(=O)(=O)N1CCC2(CC1)N=C(c1cccc(OC(F)(F)F)c1)NC2=O [Compound 230, 8-{(E)-2-[4-(4-hydroxy-piperidine-1-carbonyl)-2-methyl-phenyl]-ethenesulfonyl}-2-(3-trifluoromethoxy-phenyl)-1,3,8-triaza-spiro[4.5]dec-1-en-4-one]	66%
O=C1NC(C2CCCCC2)=NC12CCN(S(=O)(=O)/C=C/c1cc3cc[nH]c3cc1C(F)(F)F)CC2 [Compound 492, 2-cyclohexyl-8-[(E)-2-(6-trifluoromethyl-1H-indol-5-yl)-ethenesulfonyl]-1,3,8-triaza-spiro[4.5]dec-1-en-4-one]	37%
COC(=O)c1sccc1S(=O)(=O)N1CCC2(CC1)N=C(C1CCCCC1)NC2=O [Compound 62, 3-(2-cyclohexyl-4-oxo-1,3,8-triaza-spiro[4.5]dec-1-ene-8-sulfonyl)-thiophene-2-carboxylic acid methyl ester]	56%
Cc1cc(N(C)C(N)=O)cc(C)c1CCS(=O)(=O)N1CCC2(CC1)N=C(CCCCCCCCCC(=O)O)NC2=O [Compound 1362, 10-(8-{2-[2,6-dimethyl-4-(1-methyl-ureido)-phenyl]-ethanesulfonyl}-4-oxo-1,3,8-triaza-spiro[4.5]dec-1-en-2-yl)-decanoic acid]	48%
CN(C)CCn1ccc2c(CCS(=O)(=O)N3CCC4(CC3)N=C(C3CCCCC3)NC4=O)cccc21 [Compound 313, 2-cyclohexyl-8-{2-[1-(2-dimethylamino-ethyl)-1H-indol-4-yl]-ethanesulfonyl}-1,3,8-triaza-spiro[4.5]dec-1-en-4-one]	63%
O=C1NC(C2(c3ccccc3)CCCCC2)=NC12CCN(S(=O)(=O)c1cccc(Cl)c1)CC2 [Compound 33, 8-(3-chloro-benzenesulfonyl)-2-(1-phenyl-cyclohexyl)-1,3,8-triaza-spiro[4.5]dec-1-en-4-one]	4.4%
CCCCOC1CCC(C2=NC3(CCN(S(=O)(=O)CCc4ccc(NC(C)=O)cc4C)CC3)C(=O)N2)CC1 (stereo not shown) [Compound 912, N-(4-{2-[2-(4-butoxy-cyclohexyl)-4-oxo-1,3,8-triaza-spiro[4.5]dec-1-ene-8-sulfonyl]-ethyl}-3-methyl-phenyl)-acetamide]	98%
CC(=O)OC[C@H](CN(C(C)=O)c1ccc(CCS(=O)(=O)N2CCC3(CC2)N=C(c2cccc(C(F)(F)F)c2)NC3=O)c(C)c1)OC(C)=O [Compound 150, Acetic acid (S)-1-acetoxymethyl-2-[acetyl-(3-methyl-4-{2-[4-oxo-2-(3-trifluoromethyl-phenyl)-1,3,8-triaza-spiro[4.5]dec-1-ene-8-sulfonyl]-ethyl}-phenyl)-amino]-ethyl ester]	62%
Cc1cc(N(C2CCNCC2)S(C)(=O)=O)cc(C)c1/C=C/S(=O)(=O)N1CCC2(CC1)N=C(c1cccc(OC(F)(F)F)c1)NC2=O [Compound 689, N-(3,5-Dimethyl-4-{(E)-2-[4-oxo-2-(3-trifluoromethoxy-phenyl)-1,3,8-triaza-spiro[4.5]dec-1-ene-8-sulfonyl]-vinyl}-phenyl)-N-piperidin-4-yl-methanesulfonamide]	27%
Cc1cc(N(C)C(N)=O)ccc1/C=C/S(=O)(=O)N1CCC2(CC1)N=C(c1cccc(OC(F)(F)F)c1)NC2=O [Compound 458, 1-methyl-1-(3-methyl-4-{(E)-2-[4-oxo-2-(3-trifluoromethoxy-phenyl)-1,3,8-triaza-spiro[4.5]dec-1-ene-8-sulfonyl]-vinyl}-phenyl)-urea]	77%
Cc1cc(C(=O)N2CCC(O)CC2)cc(C)c1/C=C/S(=O)(=O)N1CCC2(CC1)N=C(c1cccc(CC#N)c1)NC2=O [Compound 1282, [3-(8-{(E)-2-[4-(4-Hydroxy-piperidine-1-carbonyl)-2,6-dimethyl-phenyl]-ethenesulfonyl}-4-oxo-1,3,8-triaza-spiro[4.5]dec-1-en-2-yl)-phenyl]-acetonitrile]	63%
Cc1cc(C(=O)N(C)C)ccc1CCS(=O)(=O)N1CCC2(CC1)N=C(c1ccccc1OC(F)(F)F)NC2=O [Compound 105, 3,N,N-trimethyl-4-{2-[4-oxo-2-(2-trifluoromethoxy-phenyl)-1,3,8-triaza-spiro[4.5]dec-1-ene-8-sulfonyl]-ethyl}-benzamide]	78%
Cc1cc(N2C(=O)NC(C)(C)C2=O)cc(C)c1/C=C/S(=O)(=O)N1CCC2(CC1)N=C(C1CCC(C)CC1)NC2=O (stereo not shown) [Compound 507, 3-(3,5-dimethyl-4-{(E)-2-[2-(4-methyl-cyclohexyl)-4-oxo-1,3,8-triaza-spiro[4.5]dec-1-ene-8-sulfonyl]-vinyl}-phenyl)-5,5-dimethyl-imidazolidine-2,4-dione]	43%
CC(C)COC(=O)NCc1ccc(CCS(=O)(=O)N2CCC3(CC2)N=C(C2CCCCC2)NC3=O)cc1 [Compound 658, {4-[2-(2-Cyclohexyl-4-oxo-1,3,8-triaza-spiro[4.5]dec-1-ene-8-sulfonyl)-ethyl]-benzyl}-carbamic acid isobutyl ester]	84%
Cc1cc(C(=O)N2CCC(C)(O)CC2)cc(C)c1CCS(=O)(=O)N1CCC2(CC1)N=C(c1ccc3c(c1)OC(F)(F)O3)NC2=O [Compound 1336, 2-(2,2-difluoro-benzo[1,3]dioxol-5-yl)-8-{2-[4-(4-hydroxy-4-methyl-piperidine-1-carbonyl)-2,6-dimethyl-phenyl]-ethanesulfonyl}-1,3,8-triaza-spiro[4.5]dec-1-en-4-one]	133%
Cc1cc(N(C)C(N)=O)cc(C)c1CCS(=O)(=O)N1CCC2(CC1)N=C(C1CCC(=CCC(F)(F)F)CC1)NC2=O (stereo not shown) [Compound 939, 1-[3,5-Dimethyl-4-(2-{4-oxo-2-[4-(3,3,3-trifluoro-propylidene)-cyclohexyl]-1,3,8-triaza-spiro[4.5]dec-1-ene-8-sulfonyl}-ethyl)-phenyl]-1-methyl-urea]	111%
CCCCS(=O)(=O)N1CCC2(CC1)N=C(c1ccc(Cl)cc1Cl)NC2=O [Compound 46, 8-(butane-1-sulfonyl)-2-(2,4-dichloro-phenyl)-1,3,8-triaza-spiro[4.5]dec-1-en-4-one]	17%
O=C1NC(c2cccc(C(F)(F)F)c2)=NC12CCN(S(=O)(=O)CCc1cccc3c1ccn3C[C@H](O)CO)CC2 [Compound 840, 8-{2-[1-((S)-2,3-dihydroxy-propyl)-1H-indol-4-yl]-ethanesulfonyl}-2-(3-trifluoromethyl-phenyl)-1,3,8-triaza-spiro[4.5]dec-1-en-4-one]	98%
Cc1cc(C(=O)N2CCC(O)CC2)ccc1CCS(=O)(=O)N1CCC2(CC1)N=C(c1cccc(OC(F)(F)F)c1)NC2=O [Compound 285, 8-{2-[4-(4-hydroxy-piperidine-1-carbonyl)-2-methyl-phenyl]-ethanesulfonyl}-2-(3-trifluoromethoxy-phenyl)-1,3,8-triaza-spiro[4.5]dec-1-en-4-one]	65%
Cc1cc2[nH]c(=O)[nH]c(=O)c2c(C)c1CCS(=O)(=O)N1CCC2(CC1)N=C(C1CCC(C)CC1)NC2=O (stereo not shown) [Compound 685, 5,7-Dimethyl-6-{2-[2-(4-methyl-cyclohexyl)-4-oxo-1,3,8-triaza-spiro[4.5]dec-1-ene-8-sulfonyl]-ethyl}-1H-quinazoline-2,4-dione]	46%
Cc1cc(C2=NC3(CCN(S(=O)(=O)CCc4ccc(C(=O)N(C)C)cc4C)CC3)C(=O)N2)ccc1Cl [Compound 95, 4-{2-[2-(4-chloro-3-methyl-phenyl)-4-oxo-1,3,8-triaza-spiro[4.5]dec-1-ene-8-sulfonyl]-ethyl}-3,N,N-trimethyl-benzamide]	76%
